Data: ChEMBL document CHEMBL2169826, “Pharmacokinetic benefits of 3,4-dimethoxy substitution of a phenyl ring and design of isosteres yielding orally available cathepsin K inhibitors” (J Med Chem, 2012)
Values after ≈ are worked out from the molar mass of the structure shown.

How the values were obtained:
[1] = Volume of distribution at steady state in Alderley Park Han Wistar rat at 2 mg/kg, iv and 2 mg/kg, po; format: ADME, organism-based; conditions: in vivo, read-out: Vdss
[2] = Oral bioavailability in Alderley Park Han Wistar rat at 2 mg/kg; format: ADME, organism-based; conditions: in vivo
[3] = Percentage unbound in rat plasma; format: ADME, cell-free
[4] = Metabolic stability of the compound in rat liver microsomes assessed as compound turnover after 120 mins
[5] = Percentage unbound in human plasma; format: ADME, cell-free
[6] = Aqueous solubility of the compound in at pH 7.4; conditions: buffer
[7] = Metabolic stability of the compound in human liver microsomes assessed as compound turnover after 120 mins
[8] = target: Cathepsin B (Homo sapiens, UniProt P07858); test: Inhibition of human recombinant cathepsin-B using Z-Arg-Arg-AMC as substrate preincubated for 15 mins measured after 1 hr by QFRET assay
[9] = target: T1, Cathepsin K (Homo sapiens, UniProt P43235); test: Inhibition of human recombinant cathepsin-k using Z-Phe-Arg-AMC as substrate preincubated for 15 mins measured after 1 hr by QFRET assay
T1 sequence (P43235 whole entry): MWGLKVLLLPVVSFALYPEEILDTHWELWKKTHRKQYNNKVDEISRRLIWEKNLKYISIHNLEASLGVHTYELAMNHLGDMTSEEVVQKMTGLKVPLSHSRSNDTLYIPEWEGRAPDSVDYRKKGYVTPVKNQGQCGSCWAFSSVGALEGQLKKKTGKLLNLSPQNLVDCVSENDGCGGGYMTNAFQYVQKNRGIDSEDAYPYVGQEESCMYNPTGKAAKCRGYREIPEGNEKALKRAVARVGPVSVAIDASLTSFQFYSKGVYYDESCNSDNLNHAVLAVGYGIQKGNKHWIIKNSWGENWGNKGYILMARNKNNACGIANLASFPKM

[10] = target: Procathepsin L (Homo sapiens, UniProt P07711); test: Inhibition of human recombinant cathepsin-L using Z-Phe-Arg-AMC as substrate preincubated for 15 mins measured after 1 hr by QFRET assay
[11] = in vivo; conditions: Alderley Park Han Wistar, rat, plasma, iv, 2 mg/kg
[12] = in vitro; conditions: rat, hepatocytes
[13] = physchem; conditions: buffer, pH 7.4
[14] = target: Cathepsin S (Homo sapiens, UniProt P25774); test: Inhibition of human recombinant cathepsin-S using Z-Val-Val-Arg-AMC as substrate preincubated for 15 mins measured after 1 hr by QFRET assay
[15] = Inhibition of osteoclastogenesis in human bone marrow-derived stem cells assessed as reduction of pit formation by measuring TRACP5b activity after 7 days by bone TRAP assay; format: functional; conditions: 168 h
[16] = in vitro; conditions: human, hepatocytes

Sequence of Cathepsin S (P25774 whole entry): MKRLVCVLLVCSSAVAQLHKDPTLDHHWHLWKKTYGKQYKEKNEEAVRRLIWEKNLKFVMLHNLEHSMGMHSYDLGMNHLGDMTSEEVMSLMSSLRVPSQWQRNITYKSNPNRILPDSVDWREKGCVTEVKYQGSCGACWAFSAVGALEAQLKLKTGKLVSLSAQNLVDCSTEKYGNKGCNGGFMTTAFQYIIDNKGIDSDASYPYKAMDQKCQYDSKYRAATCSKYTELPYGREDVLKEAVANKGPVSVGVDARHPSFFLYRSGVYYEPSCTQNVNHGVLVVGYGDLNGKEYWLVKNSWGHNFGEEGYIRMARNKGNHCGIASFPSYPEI
Sequence of Procathepsin L (P07711 whole entry): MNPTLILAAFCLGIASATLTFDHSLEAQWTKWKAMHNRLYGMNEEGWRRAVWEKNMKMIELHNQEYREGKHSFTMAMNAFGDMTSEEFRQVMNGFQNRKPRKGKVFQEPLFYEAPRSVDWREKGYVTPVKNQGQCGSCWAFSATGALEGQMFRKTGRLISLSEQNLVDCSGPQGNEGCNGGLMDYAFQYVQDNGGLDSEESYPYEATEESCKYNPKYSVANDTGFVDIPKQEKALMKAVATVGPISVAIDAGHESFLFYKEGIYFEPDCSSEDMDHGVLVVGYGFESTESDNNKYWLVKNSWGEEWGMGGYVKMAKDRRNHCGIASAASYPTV

| Compound | Vd [1] | bioavailability [2] | fraction unbound [3] | microsomal CLint at 2 h [4] | fraction unbound [5] | solubility [6] | microsomal CLint at 2 h [7] | IC50 [8] | IC50 [9] | IC50 [10] | clearance [11] | hepatocyte CLint [12] | logD [13] | IC50 [14] | hepatocyte CLint [16] | IC50 [15] |
| --- | --- | --- | --- | --- | --- | --- | --- | --- | --- | --- | --- | --- | --- | --- | --- | --- |
| CCCN1CCN(c2ccc(C(=O)NC3(C(=O)NCC#N)CCCCC3)cc2)CC1 [BALICATIB] | – | – | – | – | – | – | – | – | – | – | – | – | – | – | – | 26.6 nM |
| N#CC1(NC(=O)[C@@H]2CCCC[C@H]2C(=O)N2CCN(c3ccccc3)CC2)CC1 | 1.1 L/kg | 0.2% | 0.28 | 107 µL/min/mg | > 0.28 | – | 6.9 µL/min/mg | 1440 nM | 15 nM | > 10000 nM | 19 mL/min/kg | 36 µL/min/1e6 cells | – | 2260 nM | – | – |
| CC(C)(F)C[C@H](N[C@@H](c1ccc(-c2ccc(S(C)(=O)=O)cc2)cc1)C(F)(F)F)C(=O)NC1(C#N)CC1 [ODANACATIB] | – | – | – | – | – | – | – | – | – | – | – | – | – | – | – | 100 nM |
| C[C@H]1CN(c2ccc(S(C)(=O)=O)cc2)CCN1C(=O)[C@@H]1CCCC[C@H]1C(=O)NC1(C#N)CC1 | – | – | – | < 2 µL/min/mg | – | – | < 2 µL/min/mg | 3430 nM | 59 nM | > 10000 nM | – | – | – | 1510 nM | – | – |
| COc1ccc(N2CCN(C(=O)[C@@H]3CCCC[C@H]3C(=O)NCC#N)CC2)cc1 | – | – | – | 77 µL/min/mg | > 0.5 | 390 µM (≈ 150 µg/mL) | 7.1 µL/min/mg | 399 nM | 6 nM | > 10000 nM | – | – | 1.6 | 1050 nM | – | – |
| Cc1ccc(N2CCN(C(=O)[C@@H]3CCCC[C@H]3C(=O)NCC#N)CC2)cc1 | – | – | – | – | – | – | – | 572 nM | 11 nM | > 10000 nM | – | – | – | – | – | – |
| CC1(C)CN(c2ccc(S(C)(=O)=O)cc2)CCN1C(=O)[C@@H]1CCCC[C@H]1C(=O)NC1(C#N)CC1 | – | – | – | 4.9 µL/min/mg | – | – | < 2 µL/min/mg | 3510 nM | 45 nM | > 10000 nM | – | – | – | 3750 nM | – | – |
| Cc1nnc(C)c2cc(N3CCN(C(=O)[C@@H]4CCCC[C@H]4C(=O)NC4(C#N)CC4)[C@H](C)C3)ccc12 | 4.1 L/kg | 1.4% | 0.62 | – | 0.49 | – | – | 2940 nM | 17 nM | > 10000 nM | – | – | 1.9 | 1750 nM | – | – |
| Cc1noc2cc(N3CCN(C(=O)[C@@H]4CCCC[C@H]4C(=O)NC4(C#N)CC4)[C@H](C)C3)ccc12 | 2.1 L/kg | 21% | 0.14 | – | 0.2 | 600 µM (≈ 270 µg/mL) | 9.3 µL/min/mg | 603 nM | 16 nM | > 10000 nM | 29 mL/min/kg | 9.4 µL/min/1e6 cells | 2.7 | 807 nM | 30 µL/min/1e6 cells | – |
| N#CCNC(=O)[C@@H]1CCCC[C@H]1C(=O)N1CCN(c2ccccc2)CC1 | – | – | – | – | > 0.5 | – | – | – | – | > 10000 nM | – | – | – | – | – | – |
| COc1cccc2c3c([nH]c12)CCN(C(=O)[C@@H]1CCCC[C@H]1C(=O)NC1(C#N)CC1)C3 | – | – | – | – | – | – | – | – | – | – | – | – | – | – | – | 32 nM |
| Cc1nn(C)c2ccc(N3CCN(C(=O)[C@@H]4CCCC[C@H]4C(=O)NC4(C#N)CC4)[C@H](C)C3)cc12 | 2.5 L/kg | 64% | 0.27 | – | 0.25 | > 1400 µM | – | 971 nM | 9 nM | > 10000 nM | – | – | 2.8 | 1230 nM | – | – |
| CS(=O)(=O)c1ccc(N2CCN(C(=O)[C@@H]3CCCC[C@H]3C(=O)NC3(C#N)CC3)CC2)cc1 | – | 16% | – | < 2.2 µL/min/mg | > 0.5 | 2500 µM (≈ 1150 µg/mL) | < 2 µL/min/mg | 2400 nM | 18 nM | > 10000 nM | 22 mL/min/kg | – | – | 2150 nM | – | – |
| C[C@@H]1CN(c2ccc3c(c2)OCO3)CCN1C(=O)[C@@H]1CCCC[C@H]1C(=O)NC1(C#N)CC1 | – | – | – | 83 µL/min/mg | – | – | 8.8 µL/min/mg | 645 nM | 9 nM | > 10000 nM | – | – | – | 1150 nM | – | – |
| N#CCNC(=O)[C@@H]1CCCC[C@H]1C(=O)N1CCN(c2ccc(C#N)cc2)CC1 | – | – | – | – | 0.53 | – | – | – | 25 nM | > 10000 nM | – | – | 1.8 | 2600 nM | – | – |
| C[C@@H]1CN(c2ccccc2)CCN1C(=O)[C@@H]1CCCC[C@H]1C(=O)NCC#N | – | – | – | > 347 µL/min/mg | – | – | 16 µL/min/mg | 462 nM | 6 nM | > 10000 nM | – | – | – | 1220 nM | – | – |

More lines, main results first:

| Vd [1] | bioavailability [2] | fraction unbound [3] | microsomal CLint at 2 h [4] | fraction unbound [5] | solubility [6] | microsomal CLint at 2 h [7] | IC50 [8] | IC50 [9] | IC50 [10] | clearance [11] | hepatocyte CLint [12] | logD [13] | IC50 [14] | hepatocyte CLint [16] | Compound | IC50 [15] |
| --- | --- | --- | --- | --- | --- | --- | --- | --- | --- | --- | --- | --- | --- | --- | --- | --- |
| 1.1 L/kg | 3.5% | 0.25 | 48 µL/min/mg | 0.46 | > 2000 µM | < 2 µL/min/mg | 1440 nM | 14 nM | > 10000 nM | > 73 mL/min/kg | 42 µL/min/1e6 cells | 1.7 | – | – | COc1ccc(N2CCN(C(=O)[C@@H]3CCCC[C@H]3C(=O)NC3(C#N)CC3)CC2)cc1 | – |
| – | – | – | 4.3 µL/min/mg | – | – | < 2 µL/min/mg | 40000 nM | 312 nM | > 10000 nM | – | – | – | > 7430 nM | – | CC1CN(c2ccc(S(C)(=O)=O)cc2)C(C)CN1C(=O)[C@@H]1CCCC[C@H]1C(=O)NC1(C#N)CC1 (stereo not given in full) | – |
| – | – | – | 31 µL/min/mg | 0.39 | > 3700 µM | < 2.9 µL/min/mg | 315 nM | 23 nM | > 10000 nM | – | – | 1.9 | 1680 nM | – | N#CCNC(=O)[C@@H]1CCCC[C@H]1C(=O)N1CCN(c2ccc(F)cc2)CC1 | – |
| – | – | – | < 2 µL/min/mg | – | – | 9.4 µL/min/mg | 977 nM | 12 nM | > 10000 nM | – | – | – | 549 nM | – | C[C@@H]1CN(c2ccc(S(C)(=O)=O)cc2)CCN1C(=O)[C@@H]1CCCC[C@H]1C(=O)NC1(C#N)CC1 | – |
| – | – | – | 149 µL/min/mg | – | – | 5.6 µL/min/mg | – | 8 nM | > 10000 nM | – | – | – | – | – | COc1cccc(N2CCN(C(=O)[C@@H]3CCCC[C@H]3C(=O)NCC#N)CC2)c1 | – |
| – | – | – | < 5.3 µL/min/mg | > 0.5 | 280 µM (≈ 121 µg/mL) | < 2 µL/min/mg | 1180 nM | 11 nM | > 10000 nM | – | – | 0.67 | 1290 nM | – | CS(=O)(=O)c1ccc(N2CCN(C(=O)[C@@H]3CCCC[C@H]3C(=O)NCC#N)CC2)cc1 | – |
| 0.7 L/kg | 55% | 0.41 | 13 µL/min/mg | 0.24 | > 1700 µM | 4.2 µL/min/mg | 1690 nM | 5 nM | > 10000 nM | 15 mL/min/kg | < 2 µL/min/1e6 cells | 2.3 | 1100 nM | – | COc1ccc(N2CCN(C(=O)[C@@H]3CCCC[C@H]3C(=O)NC3(C#N)CC3)[C@H](C)C2)nc1OC | – |
| – | – | – | > 347 µL/min/mg | – | – | 20 µL/min/mg | 649 nM | 11 nM | > 10000 nM | – | – | 2.4 | 1300 nM | – | C[C@@H]1CN(c2ccccc2)CCN1C(=O)[C@@H]1CCCC[C@H]1C(=O)NC1(C#N)CC1 | – |
| – | – | – | < 2 µL/min/mg | – | – | < 2 µL/min/mg | 24900 nM | 211 nM | > 10000 nM | – | – | – | > 11800 nM | – | C[C@@H]1CN(c2ccc(S(C)(=O)=O)cc2)C[C@H](C)N1C(=O)[C@@H]1CCCC[C@H]1C(=O)NC1(C#N)CC1 | – |
